Each structure is given as a SMILES string. pKi: −log10 of the molar value.

For this assay, the target named is Gamma-aminobutyric acid receptor subunit gamma-2 / Gamma-aminobutyric acid receptor subunit alpha-5 (Homo sapiens, UniProt P18507+P31644). The assay is described as follows: Electrophysiology. The method, then:
Electrophysiological experiments were performed on days 3 to 5 after the micro-injection of mRNA. During the experiment the oocytes were constantly superfused by a solution containing (in mM) NaCl 90, KCl 1, HEPES 5, MgCl2 1, CaCl2 1 (pH 7.4). Oocytes were impaled by two glass microelectrodes (resistance: 0.4 MΩ) which were filled with a solution containing KCl 1M+K-acetate 1.5 M and voltage-clamped to −80 mV. The recordings were performed at room temperature using the Roboocyte two-electrode voltage clamp system (Multichannelsystem). After an initial equilibration period of 1.5 min GABA was added for 1.5 min at a concentration evoking approximately 20% of a maximal current response (EC20). After another rest interval of 2.5 min GABA was again added evoking a response of similar amplitude and shape. 0.5 min after the onset of this second GABA application the test compound, at a concentration corresponding to approximatively 30 fold its Ki, was added while GABA was still present. Current traces were recorded at a digitization rate of 10 Hz during and shortly before and after the GABA application.

Chain of Gamma-aminobutyric acid receptor subunit gamma-2 / Gamma-aminobutyric acid receptor subunit alpha-5 (P18507 40-475 limits assumed): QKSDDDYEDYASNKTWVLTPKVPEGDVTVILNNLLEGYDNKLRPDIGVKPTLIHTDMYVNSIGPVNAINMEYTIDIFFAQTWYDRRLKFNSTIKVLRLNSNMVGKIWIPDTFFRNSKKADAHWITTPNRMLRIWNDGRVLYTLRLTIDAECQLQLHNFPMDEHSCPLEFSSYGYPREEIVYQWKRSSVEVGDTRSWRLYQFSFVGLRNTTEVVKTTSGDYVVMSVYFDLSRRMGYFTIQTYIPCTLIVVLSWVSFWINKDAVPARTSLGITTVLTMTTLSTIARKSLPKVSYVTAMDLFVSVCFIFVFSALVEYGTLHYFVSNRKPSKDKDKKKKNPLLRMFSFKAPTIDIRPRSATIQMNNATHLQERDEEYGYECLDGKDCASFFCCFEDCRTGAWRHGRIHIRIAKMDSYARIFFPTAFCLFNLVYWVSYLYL
Chain of Gamma-aminobutyric acid receptor subunit gamma-2 / Gamma-aminobutyric acid receptor subunit alpha-5 (P31644 32-462 limits assumed): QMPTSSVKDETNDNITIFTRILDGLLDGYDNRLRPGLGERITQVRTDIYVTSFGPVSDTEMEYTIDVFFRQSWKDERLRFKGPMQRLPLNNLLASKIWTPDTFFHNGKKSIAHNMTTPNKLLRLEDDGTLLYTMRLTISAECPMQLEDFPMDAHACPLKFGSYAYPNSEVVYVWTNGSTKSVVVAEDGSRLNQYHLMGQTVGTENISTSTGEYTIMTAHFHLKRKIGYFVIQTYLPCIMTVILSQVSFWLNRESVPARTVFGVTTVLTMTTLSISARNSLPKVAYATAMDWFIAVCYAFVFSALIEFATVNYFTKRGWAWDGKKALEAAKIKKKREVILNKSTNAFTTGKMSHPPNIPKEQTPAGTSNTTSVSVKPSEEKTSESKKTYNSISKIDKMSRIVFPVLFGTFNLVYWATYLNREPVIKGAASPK

`Cc1onc(-c2ccc(Cl)nc2)c1COc1ccc(C(=O)N[C@H]2CCOC2)nn1` [US11091471, Example 160]: the negative-log Ki (pKi) is 8.03.

The values above are taken from BindingDB's records for patent US11091471 (Hoffmann-La Roche, 2021).
